# Experimental data taken from PubChem BioAssay AID449745 (Broad Institute, 2010).
# Inconclusive results are not listed. Calls of active or inactive are those of the source. No rule for the calls is given here.
# Target: Zinc finger protein mex-5 (Caenorhabditis elegans) (UniProt Q9XUB2)
# Assay: MEX-5 RNA-binding inhibition confirmation – biochemical, C. elegans, fluorescence polarization, dose retest (AID 449745);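 also: potency is for blocking Mex-5 binding to labeled TCR2 RNA like unlabeled competitor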
# Conditions: Mex-5 / TCR-2 RNA binding
# Zinc finger protein mex-5 (Caenorhabditis elegans), sequence (Q9XUB2 whole entry, looked up): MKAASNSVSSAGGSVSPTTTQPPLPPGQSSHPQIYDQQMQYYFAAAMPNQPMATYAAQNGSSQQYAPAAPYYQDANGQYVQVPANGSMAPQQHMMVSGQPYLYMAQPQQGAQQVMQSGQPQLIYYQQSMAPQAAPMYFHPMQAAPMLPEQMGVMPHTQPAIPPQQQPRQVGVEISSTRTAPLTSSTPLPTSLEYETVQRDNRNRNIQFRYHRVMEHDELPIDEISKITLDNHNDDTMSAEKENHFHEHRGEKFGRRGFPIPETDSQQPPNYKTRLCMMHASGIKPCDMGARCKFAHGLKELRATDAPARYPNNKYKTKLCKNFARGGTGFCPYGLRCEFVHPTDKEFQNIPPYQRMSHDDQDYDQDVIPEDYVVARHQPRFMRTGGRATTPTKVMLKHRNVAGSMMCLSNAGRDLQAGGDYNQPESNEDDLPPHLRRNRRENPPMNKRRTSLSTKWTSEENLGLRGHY
row,Structure (SMILES),AC50
1,O=C1NC(=O)N(c2ccccc2)C(=O)/C1=C/c1ccc([N+](=O)[O-])s1,23.7 µM
2,CCN(CC)c1ccc2cc(S(=O)(=O)c3ccc(C)cc3)c(=O)oc2c1,11.5 µM
3,Cc1cc(C)c2c(c1)NC(C(=O)O)C1CC=CC21 (configuration not stated),13.3 µM
4,CCCCCC#CCC#CCC#CCC#CCCCC(=O)O,6.71 µM
5,Cc1ccc(O)c(C(=O)c2cc(C#N)c(=O)n(-c3nccs3)c2)c1,14.2 µM
6,Cc1c(C(=O)NNC(=S)Nc2ccc(S(N)(=O)=O)cc2)oc2ccccc12,12.1 µM
7,Cn1c(=O)c(Nc2ccc(Cl)cc2)c2c3c(cccc31)C(=O)c1ccccc1-2,1.63 µM
8,Cc1cc(C)c2c3c(sc2n1)C(c1ccccc1)C(C#N)=C(N)O3 (configuration not stated),> 38 µM (inactive)
9,CCn1c(CSc2nnc3ccccn23)nc2cc(C(=O)O)ccc21,33.9 µM
10,COCC1CCN(Cc2c(C(=O)N3CCc4ccccc4C3)nc3ccc(Cl)cn23)C1 (configuration not stated),21.5 µM
11,Cc1nc2ccccc2n1/N=C/c1ccc([N+](=O)[O-])s1,> 38 µM (inactive)
12,O=C(NNC(=O)c1ccccc1O)c1ccc(S(=O)(=O)Nc2ccccc2)cc1,11.4 µM
13,COC(=O)c1cc(O)c(O)c(O)c1,25.4 µM
14,Cc1cc2n(n1)C(c1c[nH]c3ccccc13)Nc1ccccc1-2 (configuration not stated),> 38 µM (inactive)
15,CC(=O)Nc1ccc(S(=O)(=O)NCC(=O)NNC(=O)c2csc(N3CCOCC3)n2)cc1,12.7 µM
16,O=C(Cc1c(O)c2ccccc2oc1=O)c1ccc(C(F)(F)F)cc1,37.5 µM
17,CCOC(=O)NNc1ccc2nonc2c1[N+](=O)[O-],> 38 µM (inactive)
18,CCN(CC)C(=O)Cn1c(=O)c2ccccc2n2c(=S)sc(-c3cccc(C)c3)c12,17.2 µM
19,CN1/C(=C\C=C2C(=O)NC(=O)NC2=O)C(C)(C)c2ccccc21,> 38 µM (inactive)
20,O=[As](O)(O)c1ccc(N=Nc2ccc(O)cc2)cc1,37.5 µM
21,CCOC(=O)c1ccc(NC(=O)C(=O)NCc2ccc(/C=C(/C#N)C(=O)NCCOC)o2)cc1,> 38 µM (inactive)
22,CCCN1CCN(S(=O)(=O)c2cn(C)nc2C)CC1,39.9 µM
23,O=C(O)CCN1C(=O)/C(=C\c2ccc(-c3nc4ccccc4s3)o2)SC1=S,3.89 µM
24,COc1ccc(C(=O)C/C(=C\C(=O)c2ccc(C)cc2)c2ccccc2)cc1,> 38 µM (inactive)
25,CC(=O)OC1=C(O)C(=O)c2ccccc2C1=O,10.3 µM
26,COc1ccc2c(c1)c1nc3ccccc3nc1n2Cc1ccc(OC(C)C)c(OC)c1,24.3 µM

row,Structure (SMILES),AC50
1,O=C(O)c1cc(-c2ccc(/C=c3\sc4nc5ccc(Br)cc5n4c3=O)o2)ccc1Cl,5.15 µM
2,CCOC(=O)c1cc(C#N)c(SCC(N)=O)[nH]c1=O,> 38 µM (inactive)
3,COc1ccc2c(c1)NP(=S)(Oc1ccccc1)N2 (configuration not stated),12.8 µM
4,O=C1CCNc2ccc(-c3ccccc3)cc21,4.42 µM
5,O=C(Cc1cccs1)Nc1nnc(SCc2ccc(Br)cc2)s1,> 38 µM (inactive)
6,Cc1cc(=O)[nH]c(SCc2nc3ccc([N+](=O)[O-])cc3[nH]2)n1,16.6 µM
7,Nc1ccc2nc3c(=O)n(CCc4ccccc4)c(=O)[nH]c3nc2c1,3.43 µM
8,CC(C)N1CCc2c(sc(NC(=O)c3ccc(S(=O)(=O)N4CCCCC4C)cc3)c2C(N)=O)C1 (configuration not stated),> 38 µM (inactive)
9,CN1C(=O)C(=Cc2sc(=O)n(-c3ccccc3)c2N(C)C)C(=O)N(C)C1=O,> 38 µM (inactive)
10,CSc1nc(N)c(N=Nc2ccc([As](=O)(O)O)cc2)c(=O)[nH]1,17.7 µM
11,CCc1cc[n+](-c2nc3ccccc3nc2[N-]S(=O)(=O)c2ccc(Br)s2)cc1,4.86 µM
12,COCCCNC(=O)c1ccc2c3c(onc13)-c1ccccc1C2=O,< 0.3 µM
13,O=C(O)c1cc(O)c2c(c1)[C@@H]([C@H]1c3cc(C(=O)O)cc(O)c3C(=O)c3c(O[C@@H]4O[C@H](CO)[C@@H](O)[C@H](O)[C@H]4O)cccc31)c1cccc(OC3O[C@H](CO)[C@@H](O)[C@H](O)[C@H]3O)c1C2=O (some centres not stated),1.52 µM
14,Cc1oc2c(cc(NS(=O)(=O)c3ccc(C(C)C)cc3)c3ccccc32)c1C(=O)O,5.37 µM
15,O=C(CCCN1C(=O)/C(=C/c2ccccc2Cl)SC1=S)NNC(=O)c1ccc(Cl)cc1,> 38 µM (inactive)
16,O=S(=O)(Nc1ccc(O)c(NS(=O)(=O)c2ccccc2)c1)c1ccccc1,6.92 µM
17,COC(=O)COc1ccc(C2Nc3c(Cl)ccc(C(=O)O)c3C3C=CCC32)cc1 (configuration not stated),> 38 µM (inactive)
18,CCOc1ccc(-c2c(C#N)c(N)nc3sc(C(=O)c4ccccc4)c(N)c23)cc1,35.5 µM
19,Cc1ccc(O)c(N=CC2=C(O)c3ccccc3C2=O)c1,24.8 µM
20,O=C(O[C@@H]1OC2COC(=O)c3cc(O)c(O)c(O)c3-c3c(cc(O)c(O)c3O)C(=O)O[C@@H]([C@H]1O)[C@@H]2O)c1cc(O)c(O)c(O)c1,5.19 µM
21,Cc1nnc(SCc2nc3sc4c(c3c(=O)[nH]2)CCCC4)n(N)c1=O,> 38 µM (inactive)
22,O=C(O)c1cc(-c2ccco2)nc2cc3ccccc3cc12,> 38 µM (inactive)
23,COc1ccc(N=Nc2nc3ccc(Br)cc3n2C)cc1,34.9 µM
24,Cc1[nH][nH]c(=O)c1C(c1ccc(O)c([N+](=O)[O-])c1)c1c(C)[nH][nH]c1=O,8.52 µM
25,CC(C)(C)OC(=O)NCCCC1=CC2=CC(=O)C(C)(O)C(=O)C2=CO1 (configuration not stated),19.3 µM
26,O=[N+]([O-])c1ccc(NCc2ccccc2)c2nonc12,0.744 µM

row,Structure (SMILES),AC50
1,O=C(Nc1nc2c(s1)CN(Cc1ccccc1)CC2)c1cccc(S(=O)(=O)N2CCc3ccccc32)c1,> 38 µM (inactive)
2,COc1ccc(N2C(=O)NC(=O)/C(=C\c3ccc([N+](=O)[O-])s3)C2=O)cc1,18.7 µM
3,COc1cccc(NC(=O)CSc2nc3ccccc3nc2N2CCOCC2)c1,> 38 µM (inactive)
4,CCOc1cc(Br)c(/C=C2/C(=O)N(C)C(=S)N2CC(=O)OC)cc1OC,> 38 µM (inactive)
5,O=C(Nc1ccc2nc(-c3ccco3)c(-c3ccco3)nc2c1)N1CCN(c2ccccn2)CC1,> 38 µM (inactive)
6,NC(=S)NNc1cccc2cccnc12,0.987 µM
7,CCOC(=O)c1c(NS(=O)(=O)c2ccccc2)n(CCCOC)c2nc3ccccc3nc12,> 38 µM (inactive)
8,Cc1cccc(C2Nc3ccccc3C(=O)N2NC(=O)c2ccc([N+](=O)[O-])cc2)n1 (configuration not stated),8.47 µM
9,O=C(N/N=C/c1cc2c(cc1Cl)OCO2)c1ccccn1,> 38 µM (inactive)
10,CCCCCCc1cc2cc(C(=O)NC)c(=N)oc2cc1O,6.09 µM
11,CCOC(=O)C1=C(C)N=c2s/c(=C\c3cccn3C)c(=O)n2C1c1cccc(OC)c1OC (configuration not stated),13.8 µM
12,COc1ccc(/C=C/C(=O)c2c(O)n(CCC3=CCCCC3)c(=O)[nH]c2=O)cc1,> 38 µM (inactive)
13,CC1CCN(Cc2c(O)ccc3c2O/C(=C\c2ccco2)C3=O)CC1,6.87 µM
14,COc1ccccc1N1C(C)=CC(=C(C#N)c2nc3ccccc3s2)C=C1C,13.4 µM
15,O=Cc1ccc2ccc3cccnc3c2n1,30.2 µM
16,O=S(=O)(O)c1cccc2c(N=Nc3ccc(O)c4ncccc34)cccc12,3.04 µM
17,Cc1ccc(C(=O)N/N=C\c2cc(Br)c(Br)o2)cn1,39.7 µM
18,C/C(=N/Nc1ccc(C(=O)O)cc1)c1ccc(O)c(O)c1O,11.1 µM
19,O=C(N/N=C/c1c(O)n(C2CC2)c(=S)[nH]c1=O)c1ccccc1O,27.5 µM
20,O=C1CSC(=S)N1/N=C/c1cc(Br)c(O)c(Br)c1,> 38 µM (inactive)
21,O=C(C[n+]1ccc(C(=O)N/N=C/c2ccc(OCc3ccccc3)cc2)cc1)c1ccccc1,18.7 µM
22,Oc1ccc(N=Nc2n[nH]c(-c3ccccc3)n2)cc1,4.21 µM
23,COc1ccc(/C=C/C(=O)N/C(=C\c2ccco2)C(=O)NCCc2nc3ccccc3[nH]2)cc1,> 38 µM (inactive)
24,CCOC(=O)/C(C#N)=C\c1ccc(N2CCN(C/C=C/c3ccccc3)CC2)cc1,7.9 µM
25,Cc1cc(/C=C2\SC(=S)N(Cc3ccco3)C2=O)c(C)n1-c1ccccc1,16.6 µM
26,COc1cc(/C=C2/C(=O)NN(c3ccc(Cl)c(Cl)c3)C2=O)cc([N+](=O)[O-])c1O,31.6 µM

row,Structure (SMILES),AC50
1,O=c1cc2c(=O)oc3cc(O)c(O)oc3c2c(O)c1O,3 µM
2,Cc1nnc(N2C(=O)C(O)=C(C(=O)c3ccco3)C2c2ccc(C(C)C)cc2)s1 (configuration not stated),37.2 µM
3,N=c1c(S(=O)(=O)c2ccc(Cl)cc2)cc2c(=O)n3ccccc3nc2n1CC1CCCO1 (configuration not stated),> 38 µM (inactive)
4,OC(CNC1CCCC1)COc1ccccc1Br (configuration not stated),> 38 µM (inactive)
5,COc1ccc(/C=C2\SC(=O)NC2=S)cc1OC,20 µM
6,Nc1ccc2nc(CN3CCOCC3)[nH]c2c1,34.4 µM
7,Cc1ccc(/C=C2/NC(=O)N(Cc3ccccc3)C2=O)s1,> 38 µM (inactive)
8,COc1cc(CCC(=O)Nc2ccc(Cl)c(C(F)(F)F)c2)cc(OC)c1OC,> 38 µM (inactive)
9,CCCCOc1ccc2c(c1)/C(=C(\C(Cl)=C(Cl)Cl)[N+](=O)[O-])N2,14.2 µM
10,O=C(/C=C/c1ccc(O)c(O)c1)OC1C(O)CC(OC(=O)/C=C/c2ccc(O)c(O)c2)(C(=O)O)CC1O (configuration not stated),15.9 µM
11,COc1cc(C(=O)NC(=S)NNC(=O)c2cnccn2)cc(OC)c1OC,< 0.3 µM
12,CCCCC1=CC2=C(c3ccco3)C(=O)C(C)(OC(=O)c3ccc(OC)cc3)C(=O)C2=CN1C(CO)CO (configuration not stated),> 38 µM (inactive)
13,COc1ccccc1C(=O)Oc1ccc2c(c1)O/C(=C\c1ccncc1)C2=O,10.8 µM
14,CCc1ccc(N2C(=O)NC(=O)/C(=C\c3cccn3CCOc3ccc(C(C)C)cc3)C2=O)cc1,> 38 µM (inactive)
15,Cc1nc2c3ccccc3nc(NNC(=O)CCC(=O)NC(C)C)n2n1,< 0.3 µM
16,CCOC(=O)c1ccc(N=Nc2c(C)c(C#N)c(O)[nH]c2=O)cc1,13.3 µM
17,Oc1ccc(/C=N/n2c(-c3ccccc3)n[nH]c2=S)cc1Br,13.1 µM
18,CCOc1cc(/C=C2\C(=O)N(c3cccc(C(=O)O)c3)N=C2C(F)(F)F)ccc1OCC(=O)Nc1ccccc1OC,8.68 µM
19,S=c1[nH]cnc2sc(Nc3ccccc3)nc12,27.4 µM
20,O=C(C1=NN(c2ccccc2)C2C(=O)N(c3ccccc3)C(=O)C12)c1ccccc1 (configuration not stated),32 µM
21,CNC(=O)c1c(NC(=O)c2ccc(S(=O)(=O)N(C)c3ccccc3)cc2)sc2c1CCN(C(C)C)C2,25.2 µM
22,CC/C(=N/Nc1cccc(C)c1)c1cnnc(SC)n1,> 38 µM (inactive)
23,NS(=O)(=O)c1ccc(-c2ccc(C=C3C(=O)NC(=S)NC3=O)o2)cc1,8.11 µM
24,COc1cc(N2CCCC2)c(OC)cc1/C=C(/C#N)c1cccc(Br)c1,10.3 µM
